From patent US7517654B2, “Peptide and a derivative thereof promoting cell adhesion and spreading” (Seoul National University Industry Foundation, priority 2004, dated 2009)

B1: rLG5: recombinant His6-tagged LG5 domain, residues 1522-1713 of human laminin α3 chain (protein, listed as Homo sapiens)
chain: SSSFGVSSCLGGPLEKGIYFSEEGGHVVLAHSVLLGPEFKLVFSIRPRSLTGILIHIGSQPGKHLCVYLEAGKVTASMDSGAGGTSTSVTPKQSLCDGQWHSVAVTIKQHILHLELDTDSSYTAGQIPFPPASTQEPLHLGGAPANLTTLRIPVWKSFFGCLRNIHVNHIPVPVTEALEVQGPVSLNGCPDQ
modifications: His6 tag
notes: recombinant His6-tagged LG5 domain, residues 1522-1713 of human laminin α3 chain
B2: rLG2: recombinant His6-tagged LG2 domain, residues 959-1148 of human laminin α3 chain (protein, listed as Homo sapiens)
chain: KTFNLNTTEVEPCRRRKEESDKNYFEGTGYARVPTQPHAPIPTFGQTIQTTVDRGLLFFAENGDRFISLNIEDGKLMVRYKLNSELPKERGVGDAINNGRDHSIQIKIGKLQKRMWINVDVQNTIIDGEVFDFSTYYLGGIPIAIRERFNISTPAFRGCMKNLKKTSGVVRLNDTVGVTKKCSEDWKLVR
modifications: His6 tag
notes: recombinant His6-tagged LG2 domain, residues 959-1148 of human laminin α3 chain
B3: rLG1: recombinant His6-tagged LG1 domain, residues 782-978 of human laminin α3 chain, expressed in E. coli (protein, listed as Homo sapiens)
chain: RLPNDLEDLKGYTSLSLFLQRPNSRENGGTENMFVMYLGNKDASRDYIGMAVVDGQLTCVYNLGDREAELQVDQILTKSETKEAVMDRVKFQRIYQFARLNYTKGATSSKPETPGVYDMDGRNSNTLLNLDPENVVFYVGGYPPDFKLPSRLSFPPYKGCIELDDLNENVLSLYNFKKTFNLNTTEVEPCRRRKEES
modifications: His6 tag
notes: recombinant His6-tagged LG1 domain, residues 782-978 of human laminin α3 chain, expressed in E. coli
B4: rLG4: recombinant His6-tagged LG4 domain, residues 1352-1555 of human laminin α3 chain (protein, listed as Homo sapiens)
chain: DACSPLPKTQANHGALQFGDIPTSHLLFKLPQELLKPRSQFAVDMQTTSSRGLVFHTGTKNSFMALYLSKGRLVFALGTDGKKLRIKSKEKCNDGKWHTVVFGHDGEKGRLVVDGLRAREGSLPGNSTISIRAPVYLGSPPSGKPKSLPTNSFVGCLKNFQLDSKPLYTPSSSFGVSSCLGGPLEKGIYFSEEGGHVVLAHSVL
modifications: His6 tag
notes: recombinant His6-tagged LG4 domain, residues 1352-1555 of human laminin α3 chain

Legend:
[1] = tested on: HOK-16B cells; experiment: Cell adhesion assay on coated plates (crystal violet absorbance at 570 nm / cell counting); assay type: cell-based, human; settings: 1 h; for cell adhesion activity of synthetic peptides / cell adhesion activity compared to the peptide P4 control: HOK-16B cells; for cell adhesion activity of synthetic peptides: plates coated with 10-50 μg/well peptide, serum-free medium; for cell adhesion activity compared to the peptide P4 control: 10 μg/well truncated or Ala-substituted peptide coating; for cell adhesion activity of rLG proteins: HOK-16B cells on rLG protein-coated plates, compared to BSA control
Experimental: The cell adhesion assay was performed according to a method reported by Okazaki et al. (J. Biol. Chem., 277:37070, 2002). In detail, 24-well culture plates (Nunc, Roskilde, Denmark) were coated with various amounts of rLG proteins at 4° C. overnight. The peptides were also coated on plates by drying overnight. The substrate-coated on the plates were blocked by adding 1% heat-inactivated bovine serum albumin (BSA) in PBS for 1 h at 37° C. and washed twice with PBS. The cells in the Experimental Example 1, detached by 0.05% tyrpsin and 0.53 mM EDTA in PBS and resuspended in culture media, were added (1×10^5 cells/500 μl) to each plate and incubated for 1 h at 37° C. After incubation, unattached cells were removed by rinsing twice with PBS. The attached cells were fixed with 10% formalin in PBS for 15 min, rinsed twice with PBS, and stained with 0.5% crystal violet for 1 h. The plates were gently rinsed with DDW three times and lysed with 2% SDS for 5 min. Absorbance was measured at 570 nm in a Bio-Rad Model 550 microplate reader (BioRad).
The cell adhesion and spreading activities on peptide-coated plates were examined using HOK-16B cells by the same method as Experimental Example 2. 24-well plates were coated with 10, 20, 30, 40 and 50 μg/well peptides P1 to P5, respectively. HOK-16B cells were added to peptide-coated plates and cultured for 1 h in serum-free medium for 1 hr. After the unbound cells were washed off, adherent cells were fixed and stained with crystal violet, and then the stained cells were analyzed. Absorbance was measured at 570 nm in a microplate reader. BSA and the rLG3 were used as negative control and positive control, respectively.
It was observed that peptide P4 promotes strong cell adhesion and spreading activities and binds to integrin α3β1 in the Example 4. Therefore, to determine the biologically active core sequences in peptide P4, five synthetic peptides (P4 D-I to P4 D-V), which are C-terminal truncated peptides from the peptide P4, and six synthetic peptides (P4 D-N1 to P4 D-N6), which are N-terminal truncated peptides from the peptide P4 were prepared (FIG. 6A) and examined for HOK-16B cell adhesion and spreading activities on peptide-coated plates by the present inventors. 24-well plates were coated with 10 μg/well C-terminal truncated peptides or N-terminal truncated peptides, and HOK-16B cells were added to the plates, and then cultured in serum-free medium for 1 hr. After the unbound cells were washed off, the adherent cells were fixed to stain with crystal violet, and the stained cells were analyzed. Absorbance was measured at 570 nm in a microplate reader. Peptide P4 and BSA were used as the positive and negative controls, respectively.
24-well plates were coated with 10 μg/well peptides, and HOK-16B cells were added to the plates, and then cultured in serum-free medium for 1 hr. After the unbound cells were washed off, the adherent cells were fixed to stain with crystal violet, and the stained cells were analyzed. Peptide P4 and BSA were used as the positive and negative controls, respectively. The results were expressed as mean ±SD of the four independent experiments.

[2] = tested on: HOK-16B cells; experiment: Cell spreading activity assay on coated plates; assay type: cell-based, human; settings: for cell spreading activity compared to the peptide P4 control: HOK-16B cells, 10 μg/well truncated or Ala-substituted peptide coating, 1 h; for cell spreading activity: HOK-16B cells on rLG protein- or peptide P1-P5-coated plates
Experimental: To identify spreading cells, attached cells were fixed with 10% formalin in PBS for 15 min, rinsed twice with PBS, and stained with 0.005% crystal violet for 1 h. The plates were then gently rinsed with DDW. To ensure a representative count, each plate was divided into quarters, two fields per quarter were photographed using an Olympus BX51 microscope at 100× magnification. Cells that had adopted a flattened, polygonal shape, with filopodia-and lamellipodia-like extensions were considered to be spreading cells. In contrast, cells that resisted being washed and remained tethered to the plate surface were considered to be non-spreading cells.
To examine the adhesion activity of peptide P4 in detail, the inventors examined whether the adherent cells were tethered to the substratum or spread over the substratum. The BSA and rLG3 were used as the negative control and positive control, respectively, the percentage of cells displaying a spreading morphology was quantified by dividing the number of spreading cells by the total number of bound cells.

| Molecule | cell adhesion activity of synthetic peptides [1] | cell adhesion activity compared to the peptide P4 control [1] | cell adhesion activity of rLG proteins [1] | cell spreading activity [2] | further results |
| --- | --- | --- | --- | --- | --- |
| P2: 12-mer peptide, residues 1297-1308 of SEQ ID NO: 2 (SLKRDVSLGGCS; listed as Homo sapiens) | no adhesion activity | – | – | – | – |
| P3: 12-mer peptide, residues 1305-1316 of SEQ ID NO: 2 (GGCSLNKPPFLM; listed as Homo sapiens) | no adhesion activity | – | – | – | – |
| peptide P1: 12-mer peptide, residues 1293-1304 of human laminin α3 chain SEQ ID NO: 2; control peptide (LTSNSLKRDVSL; listed as Homo sapiens) | no adhesion activity | – | – | – | – |
| peptide P4 D-I: peptide P4 with a deletion of the C-terminal Arg residue (PPFLMLLKGST) | – | significantly lower cell adhesion activity than the peptide P4 control | – | – | – |
| peptide P4 D-N1: peptide P4 with a deletion of one of the N-terminal two Pro residues (PFLMLLKGSTR) | – | did not show a significantly lower cell adhesion and spreading activities | – | – | cell spreading activity compared to the peptide P4 control [2]: did not show a significantly lower cell adhesion and spreading activities |
| peptide P4 D-N2: peptide P4 with deletions of the N-terminal two Pro residues (FLMLLKGSTR) | – | showed a significantly lower cell adhesion and spreading activities | – | – | cell spreading activity compared to the peptide P4 control [2]: showed a significantly lower cell adhesion and spreading activities |
| peptide P4-S1: peptide P4 in which the 8th Lys of SEQ ID NO: 1 is replaced by Ala (PPFLMLLAGSTR) | – | unaffected | – | – | cell spreading activity compared to the peptide P4 control [2]: unaffected |
| peptide P5: 12-mer peptide, residues 1321-1332 of SEQ ID NO: 2 (STRFNKTKTFRI; listed as Homo sapiens) | very weak dose-dependent adhesion activity at concentrations ≧25 μg/well | – | – | – | – |
| B1 | – | – | marginal adhesion activity | minimal cell spreading | – |
| B2 | – | – | marginal adhesion activity | minimal cell spreading | – |
| B3 | – | – | marginal adhesion activity | minimal cell spreading | – |
| B4 | – | – | marginal adhesion activity | minimal cell spreading | – |
